Measured values as given in US20240425855A1, “NUCLEIC ACID-[…] RNAS FOR TRIGGER-[…]” (Hoffmann-La Roche Inc., priority 2021, published 2024).

Experiments:
[1] = system: K4/K19 tetracycline-responsive ribozyme-switch; test: K4/K19 tetracycline-responsive ribozyme-switch controlling GFP expression in stably transfected cells (FACS); format: cell-based, CHO; conditions: 50 μM tetracycline concentration; GFP readout
Method: The method according to the current invention is exemplified first in the following using the K4/K19 tetracycline-responsive ribozyme-switch generated by Beilstein et al. (ACS Synth. Biol., […] (2015) 526-534). This is presented solely as an illustration of the method according to the invention and shall not be construed as limitation thereof. The true scope is set forth in the appended claims.
Whilst the output measurement was different (Luciferase vs GFP) a 1.9× fold-increase at 50 μM tetracycline concentration was achieved (FIG. 4 and FIG. 5).
For testing and screening RNA-switches that control the mRNA degradation of a GFP reporter were cloned into the front plasmid, whereas the red-shifted iRFP gene was cloned into the back plasmid and was used for fluorescence normalization purposes. Expressed genes were placed under the control of a strong promoter (SV40). The RNA-switches constructs were cloned downstream of the GFP gene and before the bovine growth hormone polyadenylation (bGH-polyA) signal sequence. For each construct, both the complementary and anti-complementary strands were ordered as 5′-phosphorylated ssDNA oligonucleotides at Microsynth AG (Belgach, Switzerland) and were annealed by snap cooling at 0.166 μM concentration. […]

[2] = system: Env140-based LNA-regulatable ribozyme (cell lines S69 and S70); test: LNA-activation assay and flow cytometry of GFP expression; set-up: species or system CHO; conditions: stable cell lines with inducible/switchable construct and inactive construct; FACS
Method: S69 and S70, were seeded at 50,000 cells/well into a flat-bottom round wells 96-well microplate, in 200 μL media, and incubated in standard static cell culture condition with or without 12.5 μM LNA oligonucleotide added from three to seven days, after which a 70 μL aliquot was removed and analyzed by flow cytometry. Flow cytometry was performed on a 4-6 color BD FACSCanto™ or FACS Celesta™ System using the FITC channel for the evaluation of GFP expression, and APC channel for iRFP expression. The population of cells was gated to avoid cell doublets detected by the forward and side scattering.

| Molecule | fold-increase (GFP output) [1] [fold] | shift of GFP fluorescence upon application of the LNA [2] |
| --- | --- | --- |
| CN(C)[C@@H]1C(O)=C(C(N)=O)C(=O)[C@@]2(O)C(O)=C3C(=O)c4c(O)cccc4[C@@](C)(O)[C@H]3C[C@@H]12 [tetracycline] | 1.9 |  |
| ATTGTGCCTGAGGGTAGT (all phosphorothioate, sugars by position and methylation of C not given here; some nucleotides are LNA) |  | fluorescence is shifted |
